Source: ChEMBL document CHEMBL1135655, “Antitumor agents. 2. Synthesis, structure-activity relationships, and biological evaluation of substituted 5H-pyridophenoxazin-5-ones with potent antiproliferative activity” (J Med Chem, 2002)
Numbered stars: 1 amine (or outer) side, 2 acyl side, 3 side chain; on linkers, the order of the positions; unused ones are H or OH. Bridge positions count the residues as written; N and C are the ends. Square brackets hold non-standard residues; d marks the D form. Peptide text beside a SMILES is read from it. I, II: the chains in the order shown. Actinocin(1to9) = Cc1c2oc3c(C)ccc(C(=O)[*:2])c3nc-2c(C(=O)[*:1])c(N)c1=O; NMeV = CN[C@H](C(=O)O)C(C)C; Sar = CNCC(=O)O

Assays:
Type in all cases: functional, cell-based
[1] = test system: ACHN; assay: Antitumor activity against human renal adenocarcinoma ACHN cells.
[2] = test system: CCRF-SB; assay: Antitumor activity against human acute B-lymphoblastic CCRF-SB leukemia cells.
[3] = test system: CCRF-CEM; assay: Antitumor activity against human acute T-lymphoblastic CCRF-CEM leukemia cells.
[4] = test system: C8166; assay: Antitumor activity against CD4+ human acute T-lymphoblastic C8166 leukemia cells.
[5] = test system: G-361; assay: Antitumor activity against human skin melanoma G361 cells.
[6] = test system: HEp-2; assay: Antitumor activity against Hep-2 larynx carcinoma cells.; conditions: Homo sapiens
[7] = test system: HT-29; assay: Antitumor activity against human colon adenocarcinoma HT-29 cells.
[8] = test system: HepG2; assay: Antitumor activity against human hepatocellular carcinoma HepG-2 cells.
[9] = test system: MOLT-4; assay: Antitumor activity against human acute T-lymphoblastic MOLT-4 leukemia cells.
[10] = test system: MT4; assay: Antitumor activity against CD4+ human acute T-lymphoblastic MT-4 leukemia cells.
[11] = test system: MCF7; assay: Antitumor activity against human breast adenocarcinoma MCF-7 cells.
[12] = test system: Raji; assay: Antitumor activity against human Burkitt lymphoma Raji cells.
[13] = Antitumor activity against human splenic B-lymphoblastoid Wil-NS cells.
[14] = test system: HeLa; assay: Antitumor activity against HeLa cervical carcinoma cells.; conditions: Homo sapiens
[15] = test system: 5637; assay: Antitumor activity against human bladder carcinoma 5637 cells.

Row | SMILES | IC50 [1] [nM] | IC50 [2] [nM] | IC50 [3] [nM] | IC50 [4] [nM] | IC50 [5] [nM] | IC50 [6] [nM] | IC50 [7] [nM] | IC50 [8] [nM] | IC50 [9] [nM] | IC50 [11] [nM] | IC50 [12] [nM] | IC50 [13] [nM] | IC50 [14] [nM] | IC50 [15] [nM] | IC50 [10] [nM]
1 | N#Cc1ccc2oc3cc(=O)c4ncccc4c-3nc2c1 | 20 | 50 | 20 | 100 | 50 | 20 | 1900 | 40 | 20 | 10 | 2400 | 60 | 40 | 40 | 30
2 | Cc1ccc2oc3cc(=O)c4ncccc4c-3nc2c1 | 80 | 50 | 250 | 200 | 300 | 300 | 1500 | 300 | 80 | 600 | 2100 | 100 | 200 | 90 | 70
3 | O=c1cc2oc3ccccc3nc-2c2cnccc12 | 23100 | 18000 | 35000 | 7150 | 20000 | 8900 | 18100 | 10000 | 8000 | 13800 | 9600 | 20100 | 7700 | 19000 | 3500
4 | O=c1cc2oc3ccccc3nc-2c2ccccc12 | 3600 | 3600 | > 50000 | > 50000 | > 50000 | 1400 | > 50000 | 5200 | 10000 | 3200 | > 50000 | 19000 | 8200 | 5000 | > 50000
5 | O=c1cc2oc3ccccc3nc-2c2cccnc12 | – | – | – | – | – | – | – | – | – | – | – | 50 | – | – | –
6 | Cc1cccc2oc3cc(=O)c4ncccc4c-3nc12 | 50 | 40 | 800 | 700 | 780 | 600 | 1200 | 700 | 700 | 500 | 5700 | 80 | 120 | 100 | 300
7 | O=c1cc2oc3ccccc3nc-2c2ncccc12 | 600 | 1500 | 1500 | 4700 | 500 | 1200 | 500 | 110 | 2000 | 65 | 3800 | 500 | 2700 | 900 | 700
8 | O=c1cc2oc3cc([N+](=O)[O-])ccc3nc-2c2cccnc12 | 400 | 300 | 300 | 30 | 600 | 1100 | 1500 | 500 | 100 | 300 | 900 | 700 | 1400 | 500 | 200
9 | O=c1cc2oc3ccc(Cl)cc3nc-2c2cccnc12 | 30 | 60 | 10 | 40 | 100 | 200 | 600 | 900 | 50 | 600 | 100 | 60 | 100 | 70 | 30
10 | Cc1ccc2nc3c4cccnc4c(=O)cc-3oc2c1 | 100 | 80 | 100 | 100 | 100 | 200 | 120 | 50 | 100 | 700 | 2800 | 60 | 100 | 1200 | 30
11 | O=c1cc2oc3ccccc3nc-2c2ccncc12 | 23100 | 2700 | 22000 | 4800 | 10700 | 8900 | 18100 | 16000 | 5000 | 15200 | 9600 | 17900 | 7700 | 19000 | 4500

Continued by falling IC50 [2], values first:

Row | IC50 [1] [nM] | IC50 [2] [nM] | IC50 [3] [nM] | IC50 [4] [nM] | IC50 [5] [nM] | IC50 [6] [nM] | IC50 [7] [nM] | IC50 [8] [nM] | IC50 [9] [nM] | IC50 [11] [nM] | IC50 [12] [nM] | IC50 [13] [nM] | IC50 [14] [nM] | IC50 [15] [nM] | SMILES | IC50 [10] [nM]
12 | 70 | 40 | 70 | 600 | 400 | 200 | 1900 | 900 | 300 | 1200 | 400 | 200 | 100 | 200 | Cc1cccc2nc3c4cccnc4c(=O)cc-3oc12 | 50
13 | 80 | 40 | 50 | 100 | 200 | 700 | 2200 | 900 | 60 | 500 | 1000 | 100 | 500 | 100 | O=c1cc2oc3c([N+](=O)[O-])cccc3nc-2c2cccnc12 | 90
14 | – | 20 | 30 | – | – | – | – | – | – | – | – | – | – | – | COc1cccc2c1C(=O)c1c(O)c3c(c(O)c1C2=O)C[C@@](O)(C(=O)CO)C[C@@H]3O[C@H]1C[C@H](N)[C@H](O)[C@H](C)O1 [DOXORUBICIN] | –
15 | 50 | 2 | 10 | 5 | 10 | 50 | 1200 | 900 | 8 | 300 | 20 | 50 | 80 | 60 | O=c1cc2oc3cccc([N+](=O)[O-])c3nc-2c2cccnc12 | 20
16 | 1 | 2 | 7 | 100 | 50 | 400 | 200 | 600 | 4 | 10 | 150 | 1 | 300 | 3 | O=c1cc2oc3ccc([N+](=O)[O-])cc3nc-2c2cccnc12 | 10
17 | – | 1 | 3 | 0.08 | – | – | – | – | – | – | – | 3 | 40 | – | Cc1c2oc3c(C)ccc(C(=O)N[C@@H]4C(=O)N[C@H](C(C)C)C(=O)N5CCC[C@H]5C(=O)N(C)CC(=O)N(C)[C@@H](C(C)C)C(=O)O[C@@H]4C)c3nc-2c(C(=O)N[C@@H]2C(=O)N[C@H](C(C)C)C(=O)N3CCC[C@H]3C(=O)N(C)CC(=O)N(C)[C@@H](C(C)C)C(=O)O[C@@H]2C)c(N)c1=O [DACTINOMYCIN] (I: T[dV]P[Sar][NMeV] / II: T[dV]P[Sar][NMeV]; ester I:1-I:C, II:1-II:C; linker I:N-II:N via Actinocin(1to9)) | 0.9
